# Source: ChEMBL document CHEMBL5331089, “Mucormycosis: A hidden mystery of fungal infection, possible diagnosis, treatment and development of new therapeutic agents” (Eur J Med Chem, 2023)
# Assays:
# Rhizopus arrhizus [1] = experiment: Antifungal activity against Rhizopus arrhizus assessed as fungal growth inhibition; format: functional
# Rhizomucor pusillus [2] = experiment: Antifungal activity against Rhizomucor pusillus assessed as fungal growth inhibition measured at 36 to 48 hrs; format: functional; conditions: time 36-48 hrs
# Mucorales = experiment: Antifungal activity against Mucorales assessed as fungal growth inhibition measured 24 to 48 hrs; format: functional; conditions: time 24-48 hrs
# [3] = system: Syncephalastrum racemosum; experiment: Antifungal activity against Syncephalastrum racemosum RCMB 016001 assessed as zone of inhibition measured after 24 hrs; format: functional
# [4] = system: Syncephalastrum racemosum; experiment: Antifungal activity against Syncephalastrum racemosum assessed as fungal growth inhibition measured for 24 to 24 hrs by agar well diffusion assay; format: functional, organism-based; conditions: for MIC: time 24-24 hrs
# Rhizomucor pusillus [5] = experiment: Antifungal activity against Rhizomucor pusillus CN(M)231 assessed as fungal growth inhibition measured after 48 hrs by microtitre plate reader assay; format: functional
# Rhizomucor miehei [6] = experiment: Antifungal activity against Rhizomucor miehei CBS 360.92 assessed as fungal growth inhibition measured after 48 hrs by microtitre plate reader assay; format: functional
# Lichtheimia corymbifera [7] = experiment: Antifungal activity against Absidia corymbifera SZMC 2010 assessed as fungal growth inhibition measured after 48 hrs by microtitre plate reader assay; format: functional
# Rhizopus arrhizus [8] = experiment: Antifungal activity against Rhizopus oryzae assessed as fungal growth inhibition; format: functional; conditions: read-out: MEC
# Rhizopus delemar = experiment: Antifungal activity against Rhizopus delemar assessed as fungal growth inhibition; format: functional; conditions: read-out: MEC
# Mucor circinelloides [9] = experiment: Antifungal activity against Mucor circinelloides assessed as fungal growth inhibition; format: functional; conditions: read-out: MEC
# Mucor indicus = experiment: Antifungal activity against Mucor indicus assessed as fungal growth inhibition; format: functional; conditions: read-out: MEC
# Lichtheimia corymbifera [10] = experiment: Antifungal activity against Absidia corymbifera assessed as fungal growth inhibition; format: functional; conditions: read-out: MEC
# Phycomyces blakesleeanus = experiment: Antifungal activity against Phycomyces blakesleeanus assessed as fungal growth inhibition at 6.26 ug/ml measured after 24 hrs by microtiter plate assay relative to control; format: functional
# Rhizopus arrhizus [11] = experiment: Antifungal activity against Rhizopus oryzae assessed as fungal growth inhibition at 12.5 ug/ml measured after 24 hrs by microtiter plate assay relative to control; format: functional
# Mucor circinelloides [12] = experiment: Antifungal activity against Mucor circinelloides assessed as fungal growth inhibition at 100 ug/ml measured after 24 hrs by microtiter plate assay relative to control; format: functional
# Absidia = experiment: Antifungal activity against Absidia assessed as fungal growth inhibition measured upto 48 hrs by spectrophotometric analysis; format: functional
# Mucor circinelloides [13] = experiment: Antifungal activity against Mucor circinelloides assessed as fungal growth inhibition measured at 36 to 48 hrs; format: functional; conditions: time 36-48 hrs
# [14] = Antifungal activity against Rhizopus microsporus var. oligosporus NRRL 514 assessed as fungal growth inhibition measured after 48 hrs by microtitre plate reader assay; format: functional
# Rhizopus arrhizus [15] = experiment: Antifungal activity against Rhizopus oryzae clinical isolate assessed as fungal growth inhibition by checkerboard broth microdilution assay; format: functional
# Rhizomucor miehei [16] = experiment: Antifungal activity against Rhizomucor miehei CBS 360.92 assessed as fungal growth inhibition; format: functional
# Rhizopus arrhizus [17] = experiment: Antifungal activity against Rhizopus oryzae CBS 112.07 assessed as fungal growth inhibition measured after 48 hrs by microtitre plate reader assay; format: functional
# Absidia glauca = experiment: Antifungal activity against Absidia glauca SZMC 11072 assessed as fungal growth inhibition; format: functional
# Rhizopus arrhizus [18] = experiment: Antifungal activity against Rhizopus oryzae CBS 109939 assessed as fungal growth inhibition by checkerboard broth microdilution assay; format: functional
# Mucor racemosus = experiment: Antifungal activity against Mucor racemosus WRL CN(M)304 assessed as fungal growth inhibition; format: functional
# Rhizomucor pusillus [19] = experiment: Antifungal activity against Rhizomucor pusillus clinical isolate assessed as fungal growth inhibition measured after 48 hrs by microtitre plate reader analysis; format: functional
# Rhizomucor pusillus [20] = experiment: Antifungal activity against Rhizomucor pusillus ETH M4920 assessed as fungal growth inhibition; format: functional
# Mucor circinelloides [21] = experiment: Antifungal activity against Mucor circinelloides MS 12 assessed as fungal growth inhibition; format: functional
# [22] = Antifungal activity against Rhizopus microsporus NRRL 514 assessed as fungal growth inhibition measured after 48 hrs by microtitre plate reader assay; format: functional
# Rhizopus arrhizus [23] = experiment: Antifungal activity against Rhizopus oryzae CBS 146.90 assessed as fungal growth inhibition; format: functional
# [24] = system: Syncephalastrum racemosum; experiment: Antifungal activity against Syncephalastrum racemosum SZMC 2011 assessed as fungal growth inhibition measured after 48 hrs by microtitre plate reader assay; format: functional
# Mucor mucedo = experiment: Antifungal activity against Mucor mucedo WRL CN(M) assessed as fungal growth inhibition; format: functional
# Rhizopus arrhizus [25] = experiment: Antifungal activity against Rhizopus oryzae clinical isolate assessed as fungal growth inhibition measured after 24 to 72 hrs by microtitre plate reader analysis; format: functional; conditions: time 24-72 hrs
smiles,measurement,setting,value
Nc1c(-c2cc(Cc3ccc(COc4ccccn4)cc3)no2)ccc[n+]1COP(=O)([O-])O [FOSMANOGEPIX],MEC,Rhizopus arrhizus [1],0.25 µg/mL
CC[C@@H]([C@H](C)O)n1ncn(-c2ccc(N3CCN(c4ccc(OC[C@@H]5CO[C@@](Cn6cncn6)(c6ccc(F)cc6F)C5)cc4)CC3)cc2)c1=O [POSACONAZOLE],MIC,Rhizomucor pusillus [2],> 8 µg/mL
same,MIC,Mucorales,1 µg/mL
CCOC(=O)N1C/C(=C\c2ccc(Cl)cc2)C(=O)[C@@]2(C1)[C@H](c1ccc(Cl)cc1)CN(C)[C@]21C(=O)Nc2ccccc21,inhibition zone (IZ),[3],39.46 mm
same,IC50,[4],16.4 µg/mL
same,MIC,[4],1.95 µg/mL
CC[C@H](C)C(=O)O[C@H]1C[C@@H](C)C=C2C=C[C@H](C)[C@H](CC[C@@H](O)C[C@@H](O)CC(=O)O)[C@H]21 [LOVASTATIN ACID],MIC90,Rhizomucor pusillus [5],11 µg/mL
same,MIC90,Rhizomucor miehei [6],11 µg/mL
same,MIC90,Lichtheimia corymbifera [7],11 µg/mL
CCOC(=O)N1C/C(=C\c2ccc(F)c(F)c2)C(=O)[C@@]2(C1)[C@H](c1ccc(F)c(F)c1)[C@H]1CCCN1[C@]21C(=O)Nc2ccccc21,IC50,[4],11.3 µg/mL
same,MIC,[4],1.95 µg/mL
C[C@@H]1C[C@H]1/C=C/[C@@H]1C[C@H]1[C@@H]1C[C@H]1[C@@H]1C[C@H]1[C@@H]1C[C@H]1/C=C/C=C/C(=O)NC[C@H]1O[C@@H](N2CCC(=O)NC2=O)[C@H](O)[C@@H]1O,minimal effective concentration,Rhizopus arrhizus [8],≤ 0.008 µg/mL
same,minimal effective concentration,Rhizopus delemar,0.016 µg/mL
same,minimal effective concentration,Mucor circinelloides [9],0.016 µg/mL
same,minimal effective concentration,Mucor indicus,≤ 0.008 µg/mL
same,minimal effective concentration,Lichtheimia corymbifera [10],≤ 0.008 µg/mL
CO[C@H]1C[C@@H]2CC[C@@H](C)[C@@](O)(O2)C(=O)C(=O)N2CCCC[C@H]2C(=O)O[C@H]([C@H](C)C[C@@H]2CC[C@@H](O)[C@H](OC)C2)CC(=O)[C@H](C)/C=C(\C)[C@@H](O)[C@@H](OC)C(=O)[C@H](C)C[C@H](C)/C=C/C=C/C=C/1C [SIROLIMUS],inhibition at 6.26 µg/mL,Phycomyces blakesleeanus,≤ 80%
same,inhibition at 12.5 µg/mL,Rhizopus arrhizus [11],≤ 80%
same,inhibition at 100 µg/mL,Mucor circinelloides [12],≤ 80%
CCOC(=O)N1C/C(=C\c2ccc(F)cc2)C(=O)[C@@]2(C1)[C@H](c1ccc(F)cc1)CN(C)[C@]21C(=O)Nc2ccccc21,inhibition zone (IZ),[3],39.46 mm
CCC(C)n1ncn(-c2ccc(N3CCN(c4ccc(OCC5COC(Cn6cncn6)(c6ccc(Cl)cc6Cl)O5)cc4)CC3)cc2)c1=O (stereo unspecified) [ITRACONAZOLE],MIC,Absidia,0.03 µg/mL
same,MIC,Mucor circinelloides [13],> 8 µg/mL
CCOC(=O)N1C/C(=C\c2ccc(OC)cc2)C(=O)[C@@]2(C1)[C@H](c1ccc(OC)cc1)[C@H]1CCCN1[C@]21C(=O)Nc2ccccc21,IC50,[4],11.3 µg/mL
same,MIC,[4],0.98 µg/mL
CCC(C)(C)C(=O)O[C@H]1C[C@@H](C)C=C2C=C[C@H](C)[C@H](CC[C@@H](O)C[C@@H](O)CC(=O)O)[C@H]21 [TENIVASTATIN],MIC90,[14],33 µg/mL
same,MIC90,Rhizomucor pusillus [5],1.2 µg/mL
same,MIC90,Lichtheimia corymbifera [7],11 µg/mL
CC(C)n1c(/C=C/[C@H](O)C[C@H](O)CC(=O)O)c(-c2ccc(F)cc2)c2ccccc21,MIC,Rhizopus arrhizus [15],2 µg/mL
same,MIC,Rhizomucor pusillus [5],0.4 µg/mL
same,MIC,Rhizomucor miehei [16],3.12 µg/mL
same,MIC,Rhizopus arrhizus [17],3.6 µg/mL
same,MIC,Absidia glauca,6.25 µg/mL
same,MIC,Rhizopus arrhizus [18],2 µg/mL
same,MIC,Mucor racemosus,25 µg/mL
same,MIC,Rhizomucor pusillus [19],0.4 µg/mL
same,MIC,Rhizomucor pusillus [20],6.25 µg/mL
same,MIC,Mucor circinelloides [21],4 µg/mL
same,MIC90,[22],33 µg/mL
same,MIC,Rhizopus arrhizus [23],12.5 µg/mL
same,MIC,[24],11 µg/mL
same,MIC90,Rhizomucor miehei [6],3.6 µg/mL
same,MIC,Mucor mucedo,6.25 µg/mL
same,MIC90,Lichtheimia corymbifera [7],3.6 µg/mL
same,MIC,Rhizopus arrhizus [25],2 µg/mL
CCOC(=O)N1C/C(=C\c2cc(OC)c(OC)c(OC)c2)C(=O)[C@@]2(C1)[C@H](c1cc(OC)c(OC)c(OC)c1)CN(C)[C@]21C(=O)Nc2ccccc21,inhibition zone (IZ),[3],39.46 mm
CCOC(=O)N1C/C(=C\c2ccc(Cl)cc2)C(=O)[C@@]2(C1)[C@H](c1ccc(Cl)cc1)[C@H]1CCCN1[C@]21C(=O)Nc2ccccc21,inhibition zone (IZ),[3],39.46 mm
